Experimental data from ChEMBL document CHEMBL5325396, “Discovery of Novel Acridane-Based Tubulin Polymerization Inhibitors with Anticancer and Potential Immunomodulatory Effects” (J Med Chem, 2023).

Tests used:
Type in all cases: functional
B16-F10 [1] = assay: Induction of cell cycle arrest in mouse B16-F10 cells assessed as accumulation at S phase at 25 nM incubated for 24 hrs by PI staining based flow cytometry (reference value: 21.79 %)
B16-F10 [2] = assay: Induction of apoptosis in mouse B16-F10 cells assessed as necrotic cells at 25 nM incubated for 48 hrs by annexinV-FITC/PI staining based flow cytometry (reference value: 0.064 %)
B16-F10 [3] = assay: Inhibition of cell migration in mouse B16-F10 cells assessed as wound area recovery upto 50 nM incubated for 24 hrs by wound healing assay relative to control; parameters: scale not given: the % may be the effect or the level left; conditions: up to 50 nM
B16-F10 [4] = assay: Induction of cell cycle arrest in mouse B16-F10 cells assessed as accumulation at G2 phase at 10 nM incubated for 24 hrs by PI staining based flow cytometry (reference value: 23.04 %)
B16-F10 [5] = assay: Induction of apoptosis in mouse B16-F10 cells assessed as late apoptotic cells at 25 nM incubated for 48 hrs by annexinV-FITC/PI staining based flow cytometry (reference value: 2.06 %)
B16-F10 [6] = assay: Induction of cell cycle arrest in mouse B16-F10 cells assessed as accumulation at G1 phase at 25 nM incubated for 24 hrs by PI staining based flow cytometry (reference value: 52.77 %)
B16-F10 [7] = assay: Induction of cell cycle arrest in mouse B16-F10 cells assessed as accumulation at S phase at 10 nM incubated for 24 hrs by PI staining based flow cytometry (reference value: 21.79 %)
B16-F10 [8] = assay: Antitumor activity against mouse B16-F10 cells allografted in C57 mouse assessed as tumor growth inhibition at 10 mg/kg, ip administered consecutively for 14 days in presence of NP-19; conditions: B16-F10, 336 h, time 14 day, read-out: TGI
B16-F10 [9] = assay: Induction of apoptosis in mouse B16-F10 cells assessed as viable cells at 50 nM incubated for 48 hrs by annexinV-FITC/PI staining based flow cytometry (reference value: 93.6 %); conditions: read-out: Activity
B16-F10 [10] = assay: Immunomodulatory activity in mouse B16-F10 cells allografted in C57 mouse assessed as decrease in PD-L1 level at 10 mg/kg, ip administered consecutively for 14 days in presence of NP-19 relative to control; parameters: scale not given: the % may be the effect or the level left; conditions: time 14 day
B16-F10 [11] = assay: Induction of apoptosis in mouse B16-F10 cells assessed as necrotic cells at 10 nM incubated for 48 hrs by annexinV-FITC/PI staining based flow cytometry (reference value: 0.064 %)

With `COc1ccc2c(c1F)Cc1ccccc1N2C(=O)c1cc(OC)c(OC)c(OC)c1` the Activity (B16-F10 [1]) was 38.12%, the Activity (B16-F10 [2]) was 0.268% and the Activity (B16-F10 [3]) was 59.63%. The Activity (B16-F10 [4]) was 24.07%, the Activity (B16-F10 [5]) was 6.63% and the Activity (B16-F10 [6]) was 16.55%. The Activity (B16-F10 [7]) was 22.85%, the inhibition in vivo at 10 mg/kg (B16-F10 [8]) was 77.6% and the viability at 0.05 µM (B16-F10 [9]) was 49.3%. It also gave an Activity (B16-F10 [10]) of about 60% and an Activity (B16-F10 [11]) of 0.133%.
